Counter-ions that a name gives are not always drawn.
Each molecule was assayed on XBP1s-luc 293 LUC (assay: cellular PD assay, XBP1s-LUC reporter (Example 903)). Details: Table 1; read-out: XBP1s-luc 293 LUC (IC50).
Assay type: cell-based
In short: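 Cellular IRE1α pathway activity was quantified from the luciferase signal of an XBP1-Luc reporter, where the luciferase fusion is in frame and expressed only from the spliced XBP1 transcript.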

SMILES | IC50
CCCS(=O)(=O)Nc1c(F)ccc2c(Oc3ncccc3-c3ccnc(N[C@@H]4CNC[C@@H](F)C4)n3)c(C)ccc12 (single isomer, unassigned) [Example 328] | 15.2 nM
Cc1ccc2c(NC(=O)CC3(C)CCCCC3)cccc2c1Oc1ncccc1-c1ccnc(N[C@H]2CCCNC2)n1 [Example 264, (S)—N-(6-Methyl-5-((3-(2-(piperidin-3-ylamino)pyrimidin-4-yl)pyridin-2-yl)oxy)naphthalen-1-yl)-2-(1-methylcyclohexyl)acetamide hydrochloride] | 350 nM
CO[C@@H](CNc1cccc2c(Oc3ncccc3-c3ccnc(N[C@H]4CCCNC4)n3)c(C)ccc12)C(F)(F)F [Example 326, 4-(2-((2-Methyl-5-(((S)-3,3,3-trifluoro-2-methoxypropyl)amino)naphthalen-1-yl)oxy)pyridin-3-yl)-N—((S)-piperidin-3-yl)pyrimidin-2-amine] | 28.4 nM
CCCS(=O)(=O)Nc1cccc2c(Oc3ncccc3-c3ccnc(N[C@H]4CC[C@H](N)CC4)n3)c(C)ccc12 [Example 158, N-(5-((3-(2-(((trans)-4-Aminocyclohexyl)amino)pyrimidin-4-yl)pyridin-2-yl)oxy)-6-methylnaphthalen-1-yl)propane-1-sulfonamide] | 471 nM
Cc1ccc2c(NC(=O)[C@@H]3C[C@@]3(F)c3ccccc3)cccc2c1Oc1ncccc1-c1ccnc(N[C@H]2CCCNC2)n1 (single isomer, unassigned) [Example 226] | 223 nM
Cc1ccc2c(Oc3ncccc3-c3ccnc(N[C@H]4CCCNC4)n3)c(C)ccc2c1NS(=O)(=O)CC(C)C [Example 376, (S)—N-(2,6-Dimethyl-5-((3-(2-(piperidin-3-ylamino)pyrimidin-4-yl)pyridin-2-yl)oxy)naphthalen-1-yl)-2-methylpropane-1-sulfonamide] | 73.5 nM
Cc1ccc2c(NC[C@@H](O)CF)cccc2c1Oc1ncccc1-c1ccnc(N[C@H]2CCCNC2)n1 (single isomer, unassigned) [Example 334] | 89.7 nM
CO[C@H]1CNC[C@@H](Nc2nccc(-c3cccnc3Oc3c(C)ccc4c(NS(=O)(=O)Cc5ccc(Cl)cc5)cccc34)n2)C1 (single isomer, unassigned) [Example 205] | 130 nM
Cc1ccc2c(NC(=O)C3(C(F)(F)F)CC3)cccc2c1Oc1ncccc1-c1ccnc(N[C@H]2CCCNC2)n1 [Example 220, (S)—N-(6-Methyl-5-(3-(2-(piperidin-3-ylamino)pyrimidin-4-yl)pyridin-2-yloxy)naphthalen-1-yl)-1-(trifluoromethyl)cyclopropanecarboxamide] | 309 nM
Cc1ccc2c(NC(=O)[C@H]3CC3(F)F)cccc2c1Oc1ncccc1-c1ccnc(N[C@H]2CCCNC2)n1 (single isomer, unassigned) [Example 179] | 76 nM
Cc1ccc2c(NC(=O)c3ccc4ccccc4c3)cccc2c1Oc1ncccc1-c1ccnc(N[C@H]2CCCNC2)n1 [Example 174, (S)—N-(6-Methyl-5-((3-(2-(piperidin-3-ylamino)pyrimidin-4-yl)pyridin-2-yl)oxy)naphthalen-1-yl)-2-naphthamide] | 278 nM
Cc1ccc2c(NC(=O)Cc3ccc(F)cc3)cccc2c1Oc1ncccc1-c1ccnc(N[C@H]2CCCNC2)n1 [Example 199, (S)-2-(4-Fluorophenyl)-N-(6-methyl-5-((3-(2-(piperidin-3-ylamino)pyrimidin-4-yl)pyridin-2-yl)oxy)naphthalen-1-yl)acetamide] | 155 nM
Cc1ccc2c(NS(=O)(=O)Cc3ccc(Cl)cc3)cccc2c1Oc1ncccc1-c1ccnc(N[C@H]2CCCNC2)n1 [Example 143, (S)-1-(4-Chlorophenyl)-N-(6-methyl-5-((3-(2-(piperidin-3-ylamino)pyrimidin-4-yl)pyridin-2-yl)oxy)naphthalen-1-yl)methanesulfonamide] | 17 nM
Cc1ccc2c(NS(=O)(=O)Cc3ccccc3Cl)cccc2c1Oc1ncccc1-c1ccnc(N[C@H]2CCCNC2)n1 [Example 135, (S)-1-(2-Chlorophenyl)-N-(6-methyl-5-((3-(2-(piperidin-3-ylamino)pyrimidin-4-yl)pyridin-2-yl)oxy)naphthalen-1-yl)methanesulfonamide] | 10 nM
CCn1ccc(Nc2cccc3c(Oc4ncccc4-c4ccnc(N[C@H]5CCCNC5)n4)c(C)ccc23)n1 [Example 272, (S)-4-(2-((5-((1-Ethyl-1H-pyrazol-3-yl)amino)-2-methylnaphthalen-1-yl)oxy)pyridin-3-yl)-N-(piperidin-3-yl)pyrimidin-2-amine] | 463 nM
Cc1ccc2c(NS(=O)(=O)Cc3ccc(Cl)cc3)c(F)ccc2c1Oc1ncccc1-c1ccnc(N[C@H]2CCCNC2)n1 [Example 209, (S)-1-(4-Chlorophenyl)-N-(2-fluoro-6-methyl-5-((3-(2-(piperidin-3-ylamino)pyrimidin-4-yl)pyridin-2-yl)oxy)naphthalen-1-yl)methanesulfonamide] | 8.04 nM
Cc1ccc2c(NS(=O)(=O)Cc3ccccn3)cccc2c1Oc1ncccc1-c1ccnc(N[C@H]2CCCNC2)n1 [Example 126, (S)—N-(6-Methyl-5-((3-(2-(piperidin-3-ylamino)pyrimidin-4-yl)pyridin-2-yl)oxy)naphthalen-1-yl)-1-(pyridin-2-yl)methanesulfonamide hydrochloride] | 54 nM
Cc1ccc2c(NC(=O)[C@H]3CC34CCC4)c(F)ccc2c1Oc1ncccc1-c1ccnc(N[C@H]2CCCNC2)n1 (single isomer, unassigned) [Example 386] | 280 nM

Same assay, conditions: Table 2; read-out: XBP1s-luc 293 LUC (IC50)

SMILES | IC50
Cc1ccc2c(NS(=O)(=O)CCC(F)F)c(F)ccc2c1Oc1ncccc1-c1ccnc(N[C@H]2CCCNC2)n1 [Example 398, (S)-3,3-Difluoro-N-(2-fluoro-6-methyl-5-((3-(2-(piperidin-3-ylamino)pyrimidin-4-yl)pyridin-2-yl)oxy)naphthalen-1-yl)propane-1-sulfonamide hydrochloride] | 22 nM
Cc1ccc2c(NS(=O)(=O)CC3CC(F)(F)C3)c(F)ccc2c1Oc1ncccc1-c1ccnc(N[C@H]2CCCNC2)n1 [Example 433, (S)-1-(3,3-Difluorocyclobutyl)-N-(2-fluoro-6-methyl-5-((3-(2-(piperidin-3-ylamino)pyrimidin-4-yl)pyridin-2-yl)oxy)naphthalen-1-yl)methanesulfonamide] | 76 nM
Cc1ccc2c(NS(=O)(=O)Cc3cscn3)c(F)ccc2c1Oc1ncccc1-c1ccnc(N[C@H]2CCCNC2)n1 [Example 402, (S)—N-(2-Fluoro-6-methyl-5-((3-(2-(piperidin-3-ylamino)pyrimidin-4-yl)pyridin-2-yl)oxy)naphthalen-1-yl)-1-(thiazol-4-yl)methanesulfonamide hydrochloride] | 51 nM
CCCS(=O)(=O)Nc1cccc2c(Oc3ncc(OC)cc3-c3ccnc(N[C@H]4CCCNC4)n3)c(C)ccc12 [Example 424, (S)—N-(5-((5-Methoxy-3-(2-(piperidin-3-ylamino)pyrimidin-4-yl)pyridin-2-yl)oxy)-6-methylnaphthalen-1-yl)propane-1-sulfonamide hydrochloride] | 392 nM
Cc1ccc2c(N3CCC(O)C3)cccc2c1Oc1ncccc1-c1ccnc(N[C@H]2CCCNC2)n1 (single isomer, unassigned) [Example 408] | 470 nM

— patent US10968203B2, “Pyrimidinyl-pyridyloxy-naphthyl compounds and methods of treating IRE1-related diseases and disorders” (Genentech, Inc., priority 2017, dated 2021)
